Holding throughout (format): cell-based
One assay deals with T1, FXR (Homo sapiens, UniProt Q96RI1).
T1 construct: HepG2 cells were stably transfected with either FXR reporter DNA; endogenous in cells; host or cells: HepG2 cells stably transfected with a 3x FXR response element PGL4.2 luciferase reporter
T1 sequence (Q96RI1 1-486): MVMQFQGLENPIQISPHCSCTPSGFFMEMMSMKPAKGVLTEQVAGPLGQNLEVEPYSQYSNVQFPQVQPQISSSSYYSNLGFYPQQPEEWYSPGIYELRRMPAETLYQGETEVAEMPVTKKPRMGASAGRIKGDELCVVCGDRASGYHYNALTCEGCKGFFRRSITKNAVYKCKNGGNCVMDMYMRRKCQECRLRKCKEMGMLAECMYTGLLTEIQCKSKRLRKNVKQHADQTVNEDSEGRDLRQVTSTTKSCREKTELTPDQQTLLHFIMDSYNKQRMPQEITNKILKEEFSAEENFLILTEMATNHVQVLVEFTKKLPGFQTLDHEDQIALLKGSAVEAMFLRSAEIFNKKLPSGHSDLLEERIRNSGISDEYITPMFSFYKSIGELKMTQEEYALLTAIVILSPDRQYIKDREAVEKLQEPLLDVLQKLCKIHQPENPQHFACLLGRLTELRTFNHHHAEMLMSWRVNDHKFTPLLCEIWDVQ
The assay can be described thus: FXR luciferase reporter assay in HepG2 reporter cells. The following applies: for EC50: no ligand added, read-out: FXR (stimulation EC50). Here is the method: FXR luciferase reporter cells—FXR luciferase reporter cells—HepG2 cancer cells were used in the screening study. HepG2 cells were stably transfected with either FXR reporter DNA in which 3 repeated response element ([…])(SEQ ID NO:2) was inserted in-PGL4.2 luciferase reporter plasmid or LXR reporter DNA in which 3 repeated response element ([…])(SEQ ID NO:3) was inserted in PGL4.2 luciferase reporter plasmid. Reporter cells were selected by puromycin (1 ug/mL) in RPMI-1640 medium with 10% FBS.
Luciferase assay—Reporter cells were treated with compounds at 0, 10, 20, 40, and […] for 24h in a 37° C.-CO2 incubator with or without chenodeoxycholic acid (CDCA) for FXR reporter cells or GW3965 for LXR reporter cells. Cells were lysed using luciferase lysis buffer after which luciferase buffer with luciferin was added to generate luminescence. Luminescence was recorded using a luminescence microplate reader.

The target of a further assay is T2, ER-α (Homo sapiens, UniProt P03372).
T2 sequence (P03372 1-595): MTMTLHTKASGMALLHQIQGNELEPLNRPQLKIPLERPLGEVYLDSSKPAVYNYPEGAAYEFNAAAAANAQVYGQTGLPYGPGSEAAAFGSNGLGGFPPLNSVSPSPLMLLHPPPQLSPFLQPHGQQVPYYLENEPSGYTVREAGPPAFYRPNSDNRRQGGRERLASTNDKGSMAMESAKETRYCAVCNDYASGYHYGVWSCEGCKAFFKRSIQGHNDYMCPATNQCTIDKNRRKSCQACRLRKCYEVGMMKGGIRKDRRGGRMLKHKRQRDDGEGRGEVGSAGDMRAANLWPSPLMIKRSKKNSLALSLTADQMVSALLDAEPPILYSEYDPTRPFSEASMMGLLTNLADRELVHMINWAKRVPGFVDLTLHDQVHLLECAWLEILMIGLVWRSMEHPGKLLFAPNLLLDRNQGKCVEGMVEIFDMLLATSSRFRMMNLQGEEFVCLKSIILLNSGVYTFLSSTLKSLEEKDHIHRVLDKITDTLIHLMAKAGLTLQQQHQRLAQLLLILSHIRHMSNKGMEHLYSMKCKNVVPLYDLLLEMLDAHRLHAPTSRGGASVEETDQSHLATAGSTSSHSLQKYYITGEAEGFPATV
Nature of the assay: Hormone receptor signaling pathway selectivity: ER-α mediated transcriptional response. The note with it: with E2.

The target in a further assay is T3, VDR (Homo sapiens, UniProt P11473).
T3 sequence (P11473 1-427): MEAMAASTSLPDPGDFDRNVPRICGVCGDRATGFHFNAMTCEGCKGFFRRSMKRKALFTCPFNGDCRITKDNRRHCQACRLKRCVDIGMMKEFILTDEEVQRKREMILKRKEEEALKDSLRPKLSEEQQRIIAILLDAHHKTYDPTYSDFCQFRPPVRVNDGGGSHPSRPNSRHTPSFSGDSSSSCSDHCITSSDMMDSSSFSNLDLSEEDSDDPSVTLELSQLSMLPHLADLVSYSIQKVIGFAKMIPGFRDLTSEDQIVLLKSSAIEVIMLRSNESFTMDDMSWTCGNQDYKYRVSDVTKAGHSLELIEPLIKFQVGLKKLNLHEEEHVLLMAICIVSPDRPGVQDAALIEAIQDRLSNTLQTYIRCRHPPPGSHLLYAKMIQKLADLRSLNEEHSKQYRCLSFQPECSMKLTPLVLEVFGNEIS
The assay can be described thus: Hormone receptor signaling pathway selectivity: VDRE (VDR). The note with it: for IC50: with VD3; for EC50: biphasic model of action, read-out: EC50, stimulation of VDR activity.

The target in the next assay is T4, AR (Homo sapiens, UniProt P10275).
T4 sequence (P10275 1-920): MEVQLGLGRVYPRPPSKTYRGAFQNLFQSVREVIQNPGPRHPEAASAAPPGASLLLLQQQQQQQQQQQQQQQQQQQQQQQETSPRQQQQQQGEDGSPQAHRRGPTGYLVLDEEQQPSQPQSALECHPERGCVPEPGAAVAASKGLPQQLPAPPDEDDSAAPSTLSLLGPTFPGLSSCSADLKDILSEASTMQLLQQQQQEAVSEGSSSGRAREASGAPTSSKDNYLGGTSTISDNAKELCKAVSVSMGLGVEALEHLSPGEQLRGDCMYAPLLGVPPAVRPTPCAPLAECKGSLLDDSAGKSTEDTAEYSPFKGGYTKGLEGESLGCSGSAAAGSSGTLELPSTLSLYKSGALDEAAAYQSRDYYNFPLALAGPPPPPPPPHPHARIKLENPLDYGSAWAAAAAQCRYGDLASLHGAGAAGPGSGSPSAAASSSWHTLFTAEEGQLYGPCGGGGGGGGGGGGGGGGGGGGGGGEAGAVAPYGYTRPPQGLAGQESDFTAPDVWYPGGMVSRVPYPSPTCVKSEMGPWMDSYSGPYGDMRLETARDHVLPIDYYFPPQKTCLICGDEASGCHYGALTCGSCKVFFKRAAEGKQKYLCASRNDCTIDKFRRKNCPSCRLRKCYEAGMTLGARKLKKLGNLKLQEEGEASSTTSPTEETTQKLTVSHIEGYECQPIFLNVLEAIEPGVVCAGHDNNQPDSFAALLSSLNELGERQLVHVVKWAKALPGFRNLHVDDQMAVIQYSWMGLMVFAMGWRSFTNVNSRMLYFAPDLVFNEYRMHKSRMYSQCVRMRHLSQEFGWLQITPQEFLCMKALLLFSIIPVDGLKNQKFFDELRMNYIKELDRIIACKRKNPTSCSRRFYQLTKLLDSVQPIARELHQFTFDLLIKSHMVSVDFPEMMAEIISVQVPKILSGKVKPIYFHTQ
Nature of the assay: Hormone receptor signaling pathway selectivity: AR. The note with it: with DHT.

Another assay deals with ER-β (Homo sapiens, UniProt Q92731). Nature of the assay: Hormone receptor signaling pathway selectivity: ER-β. The note with it: with E2.
Sequence of ER-β (Q92731 whole entry, species assumed): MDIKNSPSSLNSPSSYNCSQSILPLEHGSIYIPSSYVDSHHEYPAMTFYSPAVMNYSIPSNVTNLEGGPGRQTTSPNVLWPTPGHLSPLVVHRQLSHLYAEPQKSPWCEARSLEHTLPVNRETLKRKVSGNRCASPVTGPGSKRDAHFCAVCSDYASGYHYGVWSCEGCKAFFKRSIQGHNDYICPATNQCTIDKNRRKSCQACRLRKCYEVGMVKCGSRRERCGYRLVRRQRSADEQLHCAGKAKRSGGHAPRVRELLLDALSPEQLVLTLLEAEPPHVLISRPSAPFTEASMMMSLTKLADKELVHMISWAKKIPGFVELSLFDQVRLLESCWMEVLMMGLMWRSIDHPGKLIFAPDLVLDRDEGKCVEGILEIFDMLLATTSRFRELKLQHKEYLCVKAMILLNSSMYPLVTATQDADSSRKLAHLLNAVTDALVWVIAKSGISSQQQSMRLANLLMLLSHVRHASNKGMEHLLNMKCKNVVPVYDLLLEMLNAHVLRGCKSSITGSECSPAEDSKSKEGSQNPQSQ
In another assay the test system is BACS. Nature of the assay: RT-qPCR for FXR target genes in HepG2 cells: BACS. How it is done:
Real Time Quantitative PCR (RT-qPCR)—Real Time Quantitative PCR (RT-qPCR) for FXR target genes: RNA was extracted from NZZ compounds treated cells using the Roche High Pure RNA isolation kit. cDNA was then generated from RNA samples using Bio-rad iScript Advanced cDNA synthesis kit for RT-qPCR. qPCR was performed using primers as shown in the Table 1 and iTaq™ Universal SYBR® Green Supermix in CFX PCR machine (Bio-rad). Relative mRNA expression was calculated based on the change of the threshold cycle relative to the internal control, (3-actin, using a standard curve generated by purified PCR products.

In assay [1] the test system is other hormone receptor signaling pathways. Nature of the assay: Selectivity for different hormone receptor signaling pathways (panel).
The mark [2] stands for this setting: read-out: ER-α with ligand E2 (inhibition IC50).
Setting [3] is: read-out: VDRE with ligand VD3 (inhibition IC50).
Setting [4] is: read-out: AR with ligand DHT (inhibition IC50).
Setting [5] is: read-out: ER-β with ligand E2 (inhibition IC50).
Where [6] appears, read: read-out: IC50, inhibition of VD3 action on VDR.
The mark [7] stands for this setting: read-out: IC50, inhibition of DHT action on AR.

The record followed here is US20220409631A1, “METHODS OF INDUCING OR ENHANCING FARNESOID X RECEPTOR (FXR)-MEDIATED TRANSCRIPTIONAL RESPONSE” (YALE UNIVERSITY, priority 2019, published 2022).

“Also recorded” adds a separate entry of the source. Like-named read-outs stand apart in the source and are kept apart here. Where only a bound is given, the exact number is not on record here.

`C=C(CC[C@@H](C)[C@H]1CC[C@H]2C3=C(C(=O)C[C@]12C)[C@@]1(C)CCC(=O)[C@@H](C)[C@@H]1C[C@@H]3O)[C@@H](C)C(=O)O` [compound (IV)]: the EC50 on FXR was over 80 µM. Also, the IC50 at ER-α (setting [2]) was 70 µM; at ER-α (read-out: IC50, inhibition of E2 triggered ERα mediated transcriptional response) it was about 80 µM; at VDR (setting [3]), over 80 µM; on AR (setting [4]), over 80 µM; at ER-β (setting [5]) it was over 80 µM.
For the molecule `C=C(CC[C@@H](C)[C@H]1CC[C@H]2C3=C(C(=O)C[C@]12C)[C@@]1(C)CCC(=O)[C@@H](C)[C@@H]1CC3=O)[C@H](C)C(=O)O` [compound (VII)], the EC50 on FXR is over 80 µM. Also, the IC50 at ER-α (setting [2]) was over 80 µM; at VDR (setting [6]) it was 20 µM; at AR (setting [7]), 40 µM; at ER-β (read-out: IC50, inhibition of E2 action on ERβ) it was 40 µM.
For `C=C(CC[C@@H](C)[C@H]1CC[C@H]2C3=C(CC[C@]12C)[C@@]1(C)CC[C@@H](O)C(C)(C)[C@@H]1C[C@@H]3O)[C@@H](C)C(=O)O` [compound (XI)], the EC50 on FXR was over 80 µM. In addition, the IC50 at ER-α (setting [2]), on VDR (setting [3]), at AR (setting [4]) and on ER-β (setting [5]) was over 80 µM in each case.
As for `C=C(CCC(C(=O)O)[C@H]1C[C@H](OC(C)=O)[C@@]2(C)C3=CC[C@H]4C(C)(C)[C@@H](O)CC[C@]4(C)C3=CC[C@]12C)C(C)C` (stereo partly shown) [compound (IX)], the EC50 on FXR was over 80 µM. The IC50 at ER-α (setting [2]), on VDR (setting [3]), on AR (setting [4]) and on ER-β (setting [5]) was over 80 µM in each case.
Turning to `C=C(CC[C@@H](C)[C@H]1CC[C@H]2C3=C(C(=O)C[C@]12C)[C@@]1(C)CCC(=O)[C@@H](C)[C@@H]1C[C@@H]3O)[C@H](C)C(=O)O` [compound (III)], the EC50 at FXR is over 80 µM. The IC50 at ER-α (setting [2]), on VDR (setting [3]), on AR (setting [4]) and on ER-β (setting [5]) was over 80 µM in each case.
On to `C=C(CC[C@@H](C)[C@H]1CC[C@H]2C3=C(C(=O)[C@H](O)[C@]12C)[C@@]1(C)CC[C@@H](O)[C@@H](C)[C@@H]1CC3=O)[C@H](C)C(=O)O` [compound (II)], for which the “BACS mRNA expression, fold lower than the CDCA induced BACS expression” value in the assay with BACS is reported as “about 2 fold”. The “impact on other hormone receptor signaling pathways” value in assay [1] is listed as “no impact”. On FXR (HepG2 FXR-luciferase reporter cells), the “induction of FXR activity / FXR mediated transcriptional response” value is “act as agonists; also recorded: induce/enhance FXR activity”. For the same molecule, the EC50 at FXR came to 40 µM. Moreover, the IC50 on ER-α (setting [2]), on VDR (setting [3]), at AR (setting [4]) and on ER-β (setting [5]) was over 80 µM throughout.
As for `C=C(CCC(C(=O)O)C1CCC2(C)C3=C(CCC12C)C1(C)CCC(O)C(C)(C)C1CC3)C(C)C` (stereo not shown) [compound (XII)], the EC50 was over 80 µM at FXR and 1.5 µM at VDR. Further, the IC50 at ER-α (setting [2]), at VDR (setting [3]), at AR (setting [4]) and at ER-β (setting [5]) was over 80 µM each time.
With `CC(C)=CCCC(C(=O)O)C1CC(O)C2(C)C3=CCC4C(C)(CCC(O)C4(C)C)C3=CCC12C` (stereo not shown) [compound (V)], on FXR, the EC50 is over 80 µM. In addition, the IC50 on ER-α (setting [2]), at VDR (setting [3]), at AR (setting [4]) and at ER-β (setting [5]) was over 80 µM each time.
With `C=C(CC[C@@H](C(=O)O)[C@H]1C[C@H](O)[C@@]2(C)C3=CC[C@H]4C(C)(C)C(O)CC[C@]4(C)C3=CC[C@]12C)C(C)C` (stereo partly shown) [compound (VI)], the EC50 on FXR was over 80 µM. Moreover, the IC50 at ER-α (setting [2]), at VDR (setting [3]), at AR (setting [4]) and on ER-β (setting [5]) was over 80 µM throughout.
Regarding `C=C(CC[C@@H](C)[C@H]1CC[C@H]2C3=C(C(=O)C[C@]12C)[C@@]1(C)CCC(=O)[C@@H](C)[C@@H]1CC3=O)[C@@H](C)C(=O)O` [compound (VIII)], the EC50 at FXR is over 80 µM. In addition, the IC50 on ER-α (setting [2]) was over 80 µM; at VDR (setting [6]), 25 µM; at AR (setting [7]), 25 µM; on ER-β (setting [5]) it was over 80 µM.
Take `C=C(CCC(C(=O)O)C1CCC2(C)C3=CCC4C(C)(CCC(O)C4(C)C)C3=CCC12C)C(C)C` (stereo not shown) [compound (X)]: the EC50 at FXR was over 80 µM; on VDR, 1.5 µM. The IC50 on ER-α (setting [2]), on VDR (setting [3]), on AR (setting [4]) and at ER-β (setting [5]) was over 80 µM throughout.
